Patent US12123010B2, “Plants having increased tolerance to herbicides” (BASF SE, priority 2017, dated 2024)

Assays:
[1] = tested on: Transgenic T2 Arabidopsis plants harboring PPO inhibitor tolerance trait; assay: Lab based germination assay in 48-well plates (Table i); type: in vivo, Arabidopsis thaliana; settings: construct AMATU_PPO2_TP_hemG (Escherichia coli); in comparison to wild type plants
[2] = tested on: Transgenic T2 Arabidopsis plants and ARBTH WT MC24 non-transgenic; assay: Greenhouse post spray test, injury 14 DAT (Tables ii, iii); type: in vivo, Arabidopsis thaliana; settings: Arabidopsis thaliana, 336 h, Table ii; for pest or weed control at 50 g/ha: 50 g ai/ha; for pest or weed control at 100 g/ha: 100 g ai/ha; for pest or weed control at 200 g/ha: 200 g ai/ha;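 as to all read-outs here: value is percent injury to the sprayed plants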
[3] = tested on: Variant PPO Enzyme F420M (Amaranthus PPO2); assay: biochemical; type: biochemical; settings: variant F420M vs wild type
[4] = tested on: Variant PPO Enzyme R128A, F420V (Amaranthus PPO2); assay: biochemical; type: biochemical; settings: variant R128A, F420V vs wild type
[5] = target: Wild Type PPO Enzyme (Amaranthus PPO2, SEQ ID NO: 1) (Amaranthus tuberculatus, UniProt Q0NZW9); assay: PPO enzyme assay (recombinant), wild type; type: biochemical
Sequence of Wild Type PPO Enzyme (Amaranthus PPO2, SEQ ID NO: 1) (Q0NZW9 1-534): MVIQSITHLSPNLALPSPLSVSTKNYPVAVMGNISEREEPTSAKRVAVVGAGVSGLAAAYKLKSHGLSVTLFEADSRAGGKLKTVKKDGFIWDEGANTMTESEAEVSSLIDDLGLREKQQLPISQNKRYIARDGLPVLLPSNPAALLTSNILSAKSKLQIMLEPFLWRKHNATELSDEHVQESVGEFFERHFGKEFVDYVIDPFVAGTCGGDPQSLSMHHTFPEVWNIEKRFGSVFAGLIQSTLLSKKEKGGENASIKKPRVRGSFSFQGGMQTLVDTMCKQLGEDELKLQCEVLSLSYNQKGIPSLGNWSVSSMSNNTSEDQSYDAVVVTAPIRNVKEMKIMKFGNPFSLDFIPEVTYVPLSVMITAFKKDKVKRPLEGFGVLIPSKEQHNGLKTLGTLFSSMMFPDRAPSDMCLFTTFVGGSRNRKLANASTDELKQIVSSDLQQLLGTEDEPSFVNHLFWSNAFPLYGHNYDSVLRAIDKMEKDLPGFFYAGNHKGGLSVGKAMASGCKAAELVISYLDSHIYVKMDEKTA

[6] = tested on: Variant PPO Enzyme R128A, F420M (Amaranthus PPO2); type: biochemical; settings: variant R128A, F420M vs wild type
[7] = tested on: Variant PPO Enzyme L397E, F420M (Amaranthus PPO2); type: biochemical; settings: variant L397E, F420M vs wild type
[8] = AMATU_PPO2_WT event Q, 1 g ai/ha
[9] = AMATU_PPO2_WT event Q, 5 g ai/ha
[10] = AMATU_PPO2_WT event Q, 10 g ai/ha
[11] = AMATU_PPO2_WT event Q, 30 g ai/ha
[12] = ARBTH WT MC24 non-transgenic, 1 g ai/ha + 1% MSO
[13] = ARBTH WT MC24 non-transgenic, 5 g ai/ha + 1% MSO
[14] = ARBTH WT MC24 non-transgenic, 10 g ai/ha + 1% MSO
[15] = ARBTH WT MC24 non-transgenic, 30 g ai/ha + 1% MSO
[16] = ARBTH WT MC24 non-transgenic, 80 g ai/ha + 1% MSO
[17] = ARBTH_PPO1_S305L_Y426M event O, 5 g ai/ha
[18] = ARBTH_PPO1_S305L_Y426M event O, 10 g ai/ha
[19] = ARBTH_PPO1_S305L_Y426M event O, 30 g ai/ha
[20] = ARBTH_PPO1_S305L_Y426M event O, 80 g ai/ha
[21] = ARBTH_PPO1_WT event Q, 1 g ai/ha
[22] = ARBTH_PPO1_WT event Q, 5 g ai/ha
[23] = ARBTH_PPO1_WT event Q, 10 g ai/ha
[24] = ARBTH_PPO1_WT event Q, 30 g ai/ha

Structure (SMILES) | Tolerance Factor [1] | pest or weed control at 1 g/ha [2, 8] | pest or weed control at 5 g/ha [2, 9] | pest or weed control at 10 g/ha [2, 10] | pest or weed control at 30 g/ha [2, 11] | pest or weed control at 1 g/ha [2, 12] | pest or weed control at 5 g/ha [2, 13] | pest or weed control at 10 g/ha [2, 14] | pest or weed control at 30 g/ha [2, 15] | pest or weed control at 80 g/ha [2, 16] | pest or weed control at 5 g/ha [2, 17] | pest or weed control at 10 g/ha [2, 18] | pest or weed control at 30 g/ha [2, 19] | pest or weed control at 80 g/ha [2, 20] | pest or weed control at 1 g/ha [2, 21] | pest or weed control at 5 g/ha [2, 22] | pest or weed control at 10 g/ha [2, 23] | pest or weed control at 30 g/ha [2, 24] | IC50 [5] | also measured
Cn1c(C(F)(F)F)cc(=O)n(-c2nc(Oc3ccccc3OCC(=O)O)c(Cl)cc2F)c1=O [Uracilpyridine 5, 2-[2-[[3-chloro-5-fluoro-6-[3-methyl-2,6-dioxo-4-(trifluoromethyl)pyrimidin-1-yl]-2-pyridyl]oxy]phenoxy]acetic acid] | 1400 | 28% | 90% | 100% | 100% | 100% | 100% | 100% | 100% | 100% | 0% | 0% | 68% | 73% | 45% | 90% | 99% | 100% | – | –
CCOC(=O)COc1ccccc1Oc1nc(-n2c(=O)cc(C(F)(F)F)n(C)c2=O)c(F)cc1F [Uracilpyridine 8, ethyl 2-[2-[[3,5-difluoro-6-[3-methyl-2,6-dioxo-4-(trifluoromethyl)pyrimidin-1-yl]-2-pyridyl]oxy]phenoxy]acetate] | 8202 | 10% | 55% | 100% | 100% | 88% | 100% | 100% | 100% | 100% | 0% | 0% | 0% | 0% | 10% | 30% | 55% | 100% | 0.496 nM | Tolerance Factor (R/S) [3]: 139; Tolerance Factor (R/S) [4]: 4531
Cn1c(C(F)(F)F)cc(=O)n(-c2nc(Oc3ccccc3OCC(=O)O)c(F)cc2F)c1=O [Uracilpyridine 9, 2-[2-[[3,5-difluoro-6-[3-methyl-2,6-dioxo-4-(trifluoromethyl)pyrimidin-1-yl]-2-pyridyl]oxy]phenoxy]acetic acid] | 1600 | 38% | 68% | 100% | 100% | 85% | 100% | 100% | 100% | 100% | 0% | 0% | 0% | 0% | 10% | 50% | 70% | 98% | – | –
Cn1c(C(F)(F)F)cc(=O)n(-c2nc(Oc3ccccc3OCC(=O)NS(C)(=O)=O)c(Cl)cc2F)c1=O [Uracilpyridine 10, 2-[2-[[3-chloro-5-fluoro-6-[3-methyl-2,6-dioxo-4-(trifluoromethyl)pyrimidin-1-yl]-2-pyridyl]oxy]phenoxy]-N-methylsulfonyl-acetamide] | – | 58% | 100% | 100% | 100% | 100% | 100% | 100% | 100% | 100% | 10% | 8% | 99% | 99% | 50% | 98% | 100% | 100% | 0.212 nM | Tolerance Factor (R/S) [6]: 7879; pest or weed control at 50 g/ha ([2]; ALOMY_PPO2_R137L_F438V event F): 0%; pest or weed control at 100 g/ha ([2]; ALOMY_PPO2_R137L_F438V event F): 8%; pest or weed control at 200 g/ha ([2]; ALOMY_PPO2_R137L_F438V event F): 10%; pest or weed control at 50 g/ha ([2]; ALOMY_PPO2_R137L_F438V event G): 0%; pest or weed control at 100 g/ha ([2]; ALOMY_PPO2_R137L_F438V event G): 0%; pest or weed control at 200 g/ha ([2]; ALOMY_PPO2_R137L_F438V event G): 5%; pest or weed control at 50 g/ha ([2]; AMATU_PPO2_L397E_F420V event D): 0%; pest or weed control at 100 g/ha ([2]; AMATU_PPO2_L397E_F420V event D): 5%; pest or weed control at 200 g/ha ([2]; AMATU_PPO2_L397E_F420V event D): 13%; pest or weed control at 50 g/ha ([2]; AMATU_PPO2_L397E_F420V event L): 8%; pest or weed control at 100 g/ha ([2]; AMATU_PPO2_L397E_F420V event L): 53%; pest or weed control at 200 g/ha ([2]; AMATU_PPO2_L397E_F420V event L): 20%; pest or weed control at 50 g/ha ([2]; AMATU_PPO2_R128A_F420V event A): 38%; pest or weed control at 100 g/ha ([2]; AMATU_PPO2_R128A_F420V event A): 53%; pest or weed control at 200 g/ha ([2]; AMATU_PPO2_R128A_F420V event A): 68%; pest or weed control at 50 g/ha ([2]; AMATU_PPO2_R128A_F420V event D): 30%; pest or weed control at 100 g/ha ([2]; AMATU_PPO2_R128A_F420V event D): 78%; pest or weed control at 200 g/ha ([2]; AMATU_PPO2_R128A_F420V event D): 88%; Tolerance Factor (R/S) [7]: 30714
